Measured values reported in US20170360912A1, “CHITOSAN-BASED HYDROGEL AND APPLICATIONS THEREOF” (priority 2014, published 2017).

What was measured:
[1] = Measurement of pH and osmolality (Example 2); assay type: physicochemical; settings: FIG. 8 panels A-C
Method: After 24 hours of gelation at 37° C., each hydrogel was pressed and filtered in order to recover entrapped solution. The pH of the extracted liquids was measured at room temperature using a pH meter (UltraBasic pH-meter, Denver Instrument). The impact of GA concentration of gels prepared with culture medium (as detailed in Section 2.2.4) on the final osmolality of hydrogels was measured using an osmometer (Advanced® Micro Osmometer, Model 3300, Advanced Instruments Inc.).

[2] = BGP pKa,2 at 25° C.; cited from earlier work
[3] = test system: endothelial-derived cells (EA.hy 926); settings: SHC 0.1M; cited from earlier work
[4] = Doxycycline denaturation on mixing, spectrometry; assay type: physicochemical
Excerpt: Addition of an anti-oxidant was however required for long term stability.

Compound | slope of osmolality versus gelling agent concentration [1] | pKa [2] | damage on endothelial-derived cells [3] | drug stability on direct addition in the CH or GA solution [4] | drug stability on addition in the CH-GA solution ([4]; room temperature)
O.O.O.O.O.O=P([O-])([O-])OC(CO)CO.[Na+].[Na+] [BGP, β-Glycerol phosphate disodium salt pentahydrate, reference compound] | 1789 | 6.65 | – | – | –
O=C([O-])O.[Na+] [SHC, Sodium hydrogen carbonate] | 1475 | 6.35 | no damage | – | –
C[C@H]1c2cccc(O)c2C(=O)C2=C(O)[C@]3(O)C(=O)C(C(N)=O)=C(O)[C@@H](N(C)C)[C@@H]3[C@@H](O)[C@@H]21 [doxycycline] | – | – | – | drug denaturation | avoid drug denaturation
